Reference: US20090012152A1, “Use of Tetramic Acid Derivatives for Controlling Insects from the Genus of the Plane Lice (Sternorrhyncha)” (Bayer CropScience Aktiengesellschaft, priority 2005, published 2009)

How the values were obtained:
Format in all cases: in vivo
Psylla piri = assay: Example 5: pear trees treated against Psylla piri; settings: nymphs on shoots, g a.i./ha/m crown height: amitraz 266, I-4 72
Protocol: In three replications, pear trees of the cultivar “Williams Christ” are treated against Psylla piri. Application is shortly before the eggs hatch. The application is carried out using a barrow-mounted sprayer operated with pressurized air. Here, the active compound Example (I-4) (240 SC) is tested in a tank mix with 0.1% a.i. rapeseed oil methyl ester (500 EW) at the stated amount against the standard amitraz (200 EC) at the stated amount. The application rate is 1000 l of water/ha.
Evaluation is carried out 7, 14 and 21 days after the treatment by rating the kill of the nymphs on the shoots.

Ceroplastes rubens = assay: Example 12: satsuma trees treated against Ceroplastes rubens; settings: 41 days after treatment; live animals counted, Henderson and Tilton; satsuma tree; % a.i.: buprofezin 0.025, I-4 0.0072
Protocol: In three replications, in each case one about 4-year-old satsuma tree of the cultivar “Nankan 20” is treated against Ceroplastes rubens. Here, the active compound Example (I-4) (240 SC) in a tank mix with 0.1% of rapeseed oil methyl ester (500 EW) at the stated application rate is tested against the commercial standard buprofezin (25 WP) at the stated application rate. The application is carried out using a motor-operated knapsack sprayer. Here, treatment is carried out using an application rate of 400 l of water/ha.
Evaluation is carried out before and 41 days after the treatment by counting the live animals. The efficacy in percent is then calculated according to Henderson and Tilton.

[1] = system: Pseudaulacaspis pentagons; assay: Example 22: peach trees treated against Pseudaulacaspis pentagons; settings: crawlers on shoots, g a.i./ha/m crown height: Esteem 98, I-4 120
Protocol: In ten replications, on about 46 m^2, peach trees are treated against Pseudaulacaspis pentagons. Two applications are carried out at an interval of 57 days using a sprayer operated with pressurized air. Here, the active compound Example (I-4) (240 SC) in a tank mix with 0.2% of Dynamic (910 XL) is applied at the stated application rate and the commercial standard Esteem (35 WP) is applied at the stated application rate. The application rate is 935 l of water/ha.
Evaluation is carried out 35 and 79 days after the last treatment by rating the kill of the crawlers on the shoots.

[2] = system: Pseudaulacaspis prunicola; assay: Example 23: Japanese apricot trees treated against Pseudaulacaspis prunicola; settings: 58 days after treatment, nymphs on shoots, % a.i.: Supracide EC 0.04, I-4 0.0075
Protocol: In six replications, about 16-year-old Japanese apricot trees of the cultivar “Shirokag” are treated against Pseudaulacaspis prunicola. The application is carried out using a sprayer. Here, the active compound Example (I-4) (200 SC) is tested against the commercial standard Supracide EC (400 EC), at the stated application rates. The application rate is 1500 l of water/ha.
Evaluation is carried out 58 days after the treatment by rating the kill of the nymphs on the shoots.

[3] = system: Pseudaulacaspis pentagona; assay: Example 24: tea plants treated against Pseudaulacaspis pentagona; settings: crawlers on tea plants, % a.i.: Supracide EC 0.04, I-4 0.01
Protocol: In nine replications, about 7-week-old tea plants of the cultivar “Yakubita” are treated against Pseudaulacaspis pentagona. Here, the active compound Example (I-4) (200 SC) is tested against the commercial standard Supracide EC (400 EC) at the stated application rates. The application is carried out using a sprayer operated with pressurized air. Evaluation is carried out 16 and 35 days after the treatment by rating the kill of the crawlers on the plants.

Dysmicoceus brevipes = assay: Example 30a: guyabano tree treated against Dysmicoceus brevipes; settings: on fruits, g a.i./m crown height: Lorsban 180, I-4 48
Protocol: In three replications, in each case one guyabano tree is treated against Dysmicoceus brevipes. Here, the active compound Example (I-4) (240 SC), in a tank mix with 0.1% of rapeseed oil methyl ester (500 EW), is, at the stated application rate, tested against the commercial standard Lorsban (500 EC), at the stated application rate. The application is carried out using a motor-operated knapsack sprayer. Here, each plant is treated with spray liquor.
Evaluation is carried out 3, 7 and 14 days after the treatment by rating the kill in percent on the fruits.

Myzus persicae [4] = assay: Example 49: potatoes treated against Myzus persicae; settings: live nymphs on leaves, Henderson and Tilten, g a.i./ha: Tamaron 585, I-4 48
Protocol: In four replications, plots of a size of about 7.5 m^2 with potatoes of the cultivar “BP 1” are treated against Myzus persicae. The application is carried out using a knapsack sprayer operated with pressurized air. Here, the active compound Example (I-4) (240 SC), in a tank mix with 0.2% a.i. of rapeseed oil methyl ester (500 EW), and the commercial standard Tamaron (585 SL) are tested at the stated application rates. Two applications are carried out, at an interval of 7 days. The application rate is 500 l of water/ha.
Evaluation is carried out 7 and 13 days after the first treatment by counting the live animals (nymphs) on the leaves. The efficacy is then calculated by calculating the effect on the population in percent according to Henderson and Tilten.

Myzus persicae [5] = assay: Example 50: tomatoes treated against Myzus persicae; settings: nymphs on leaves, g a.i./ha: acetamiprid 50, I-9 36, I-4 48
Protocol: In two replications, plots of a size of about 43 m^2 with tomatoes of the cultivar “Yaqui” are treated against Myzus persicae. The application is carried out using a motor-operated knapsack sprayer. Here, the active compounds Example (I-9) (240 SC) and Example (I-4) (240 SC), in a tank mix with 0.1% a.i. of rapeseed oil methyl ester (500 EW), and the standard acetamiprid (20 WP) are applied at the stated application rates. The application rate is 208 l of water/ha.
Evaluation is carried out 3 and 10 days after the treatment by rating the kill of the nymphs on the leaves.

Rhodobium porosum = assay: Example 55: strawberry plants treated against Rhodobium porosum; settings: nymphs on strawberry plants, g a.i./ha: Calypso 120, I-4 75
Protocol: In four replications, plots of a size of about 3 m^2 with 3-week-old strawberry plants are treated against Macrosiphum euphorbiae and Rhodobium porosum. The application is carried out using a knapsack sprayer operated with pressurized air. Here, the active compound Example (I-4) (150 OD) and the commercial standard Calypso (480 SC) are tested at the stated application rates. Here, the standard is sprayed as a tank mix with 0.03% of Motto (adjuvant). The application rate is 500 l of water/ha.
Evaluation is carried out 7 and 14 days after the second treatment by rating the kill of the nymphs on the plants.

CCOC(=O)OC1=C(c2cc(C)ccc2C)C(=O)NC12CCC(OC)CC2 (stereo not drawn) [Example (I-4)]
Kill (%) 7 d (Psylla piri; 7 d after treatment): 100%
Kill (%) 14 d (Psylla piri; 14 d after treatment): 100%
Kill (%) 21 d (Psylla piri; 21 d after treatment): 100%
Effect (%) (Ceroplastes rubens): 98%
Kill (%) 35 d ([1]; 35 d after last of two treatments): 90%
Kill (%) 79 d ([1]; 79 d after last of two treatments): 87%
Kill (%) 58 days [2]: 92.3%
Kill (%) 16 d ([3]; 16 d after treatment): 81.8%
Kill (%) 35 d ([3]; 35 d after treatment): 75%
Kill (%) 3 days (Dysmicoceus brevipes; 3 days after treatment): 89.8%
Kill (%) 7 days (Dysmicoceus brevipes; 7 days after treatment): 100%
Kill (%) 14 days (Dysmicoceus brevipes; 14 days after treatment): 100%
Effect (%) 7 d (Myzus persicae [4]; 7 d after first of two treatments): 67%
Effect (%) 13 d (Myzus persicae [4]; 13 d after first of two treatments): 100%
Kill (%) 3 d (Myzus persicae [5]; 3 d after treatment): 92.6%
Kill (%) 10 d (Myzus persicae [5]; 10 d after treatment): 95.9%
Rhodobium porosum Kill (%) 7 d (Rhodobium porosum; 7 d after second treatment): 97%
Rhodobium porosum Kill (%) 14 d (Rhodobium porosum; 14 d after second treatment): 96%
